{
  "source": "ChEMBL document CHEMBL3352421",
  "about": "“Development of a new benzophenone-diketopiperazine-type potent antimicrotubule agent possessing a 2-pyridine structure” (ACS Med Chem Lett, 2014)",
  "key": {"[1]": {"target": "T1, Tubulin (Sus scrofa, UniProt P02554+P02550)", "test": "Binding affinity to porcine tubulin incubated for 1 hr by spectrofluorometry", "type": "protein assay"}, "[2]": {"target": "T1, Tubulin", "test": "Inhibition of porcine tubulin polymerization by spectrophotometry", "type": "protein assay"}, "[3]": {"tested_on": "HeLa", "test": "Cytotoxicity against human HeLa cells after 48 hrs by WST8 assay", "type": "functional, cell-based"}, "[4]": {"tested_on": "A549", "test": "Cytotoxicity against human A549 cells after 48 hrs by WST8 assay", "type": "functional, cell-based", "details": "A549, 48 h"}, "[5]": {"tested_on": "HeLa", "test": "Induction of multipolar spindle formation in human HeLa cells at 20 to 30 nM by DAPI staining", "type": "functional, cell-based"}, "[6]": {"tested_on": "HeLa", "test": "Inhibition of mitotic spindle formation in human HeLa cells at 7 and 30 nM by DAPI staining"}, "[7]": {"tested_on": "HT-29", "test": "Cytotoxicity against human HT-29 cells after 48 hrs by XTT/PMS assay", "type": "functional, cell-based", "details": "HT-29, 48 h"}, "[8]": {"tested_on": "HeLa", "test": "Potency index, ratio of IC50 for Plinabulin to IC50 for test compound against human HeLa cells after 48 hrs by WST8 assay", "type": "functional"}, "[9]": {"tested_on": "A549", "test": "Potency index, ratio of IC50 for Plinabulin to IC50 for test compound against human A549 cells after 48 hrs by WST8 assay", "type": "functional"}, "[10]": {"test": "Cytotoxicity against human NHSF46 cells after 48 hrs by XTT/PMS assay", "type": "cell-based", "details": "NHSF46, 48 h"}, "[11]": {"test": "Cytotoxicity against human PMNC cells after 48 hrs by WST1 assay", "type": "functional, cell-based"}, "[12]": {"tested_on": "HT-29", "test": "Selectivity index, ratio of IC50 for human NHSF46 cells to IC50 for human HT-29 cells", "type": "functional"}, "[13]": {"tested_on": "HT-29", "test": "Selectivity index, ratio of IC50 for human PMNC cells to IC50 for human HT-29 cells", "type": "functional"}, "[14]": {"tested_on": "HeLa", "test": "Induction of multipolar spindle formation in human HeLa cells at 7 nM by DAPI staining", "type": "functional, cell-based"}},
  "note": "Calls of active or inactive are those of the source. No cut-off for these calls is given here.",
  "data": [
    {"smiles": "CC(C)(C)c1[nH]cnc1/C=c1\\[nH]c(=O)/c(=C/c2ccccc2)[nH]c1=O", "note": "[PLINABULIN]", "values": [
      {"measurement": "Kd", "setting": "[1]", "value": 1000, "unit": "nM"},
      {"measurement": "IC50", "setting": "[2]", "value": 1800, "unit": "nM"},
      {"measurement": "IC50", "setting": "[3]", "value": 20.6, "unit": "nM"},
      {"measurement": "IC50", "setting": "[4]", "value": 35.7, "unit": "nM"},
      {"measurement": "Activity", "setting": "[5]", "value": "Active"},
      {"measurement": "inhibition", "setting": "[6]", "value": "Active"}
    ]},
    {"smiles": "Cc1[nH]cnc1/C=c1\\[nH]c(=O)/c(=C/c2cccc(C(=O)c3ccccc3)c2)[nH]c1=O", "values": [
      {"measurement": "IC50", "setting": "[7]", "value": 15, "unit": "nM"}
    ]},
    {"smiles": "CC(=O)N1CC(=O)N/C(=C\\c2cccc(C(=O)c3ccccc3)c2)C1=O", "values": [
      {"measurement": "IC50", "setting": "[7]", "value": 8800, "unit": "nM"}
    ]},
    {"smiles": "O=C1CNC(=O)/C(=C/c2cccc(C(=O)c3ccccc3)c2)N1", "values": [
      {"measurement": "IC50", "setting": "[7]", "value": "> 20000", "unit": "nM"}
    ]},
    {"smiles": "O=C(c1ccccc1)c1cccc(/C=c2\\[nH]c(=O)/c(=C/c3cccnc3)[nH]c2=O)c1", "values": [
      {"measurement": "IC50", "setting": "[7]", "value": "> 1000", "unit": "nM"}
    ]},
    {"smiles": "O=C(c1ccccc1)c1cccc(/C=c2\\[nH]c(=O)/c(=C/c3ccccc3)[nH]c2=O)c1", "values": [
      {"measurement": "IC50", "setting": "[7]", "value": 94.3, "unit": "nM"}
    ]},
    {"smiles": "O=C(c1ccccc1)c1cccc(/C=c2\\[nH]c(=O)/c(=C/c3ccccn3)[nH]c2=O)c1", "values": [
      {"measurement": "IC50", "setting": "[7]", "value": 7, "unit": "nM"},
      {"measurement": "Kd", "setting": "[1]", "value": 1300, "unit": "nM"},
      {"measurement": "IC50", "setting": "[2]", "value": 1200, "unit": "nM"},
      {"measurement": "IC50", "setting": "[3]", "value": 5.4, "unit": "nM"},
      {"measurement": "IC50", "setting": "[4]", "value": 14.2, "unit": "nM"},
      {"measurement": "Ratio IC50", "setting": "[8]", "value": 3.8},
      {"measurement": "Ratio IC50", "setting": "[9]", "value": 2.5},
      {"measurement": "IC50", "setting": "[10]", "value": 77, "unit": "nM"},
      {"measurement": "IC50", "setting": "[11]", "value": 481, "unit": "nM"},
      {"measurement": "Ratio IC50", "setting": "[12]", "value": 10},
      {"measurement": "Ratio IC50", "setting": "[13]", "value": 10},
      {"measurement": "Activity", "setting": "[14]", "value": "Active"},
      {"measurement": "inhibition", "setting": "[6]", "value": "Active"}
    ]},
    {"smiles": "O=C(c1ccccc1)c1cccc(/C=c2\\[nH]c(=O)/c(=C/c3ncccn3)[nH]c2=O)c1", "values": [
      {"measurement": "IC50", "setting": "[7]", "value": 75.3, "unit": "nM"}
    ]},
    {"smiles": "O=C(c1ccccc1)c1cccc(/C=c2\\[nH]c(=O)/c(=C/c3ccncc3)[nH]c2=O)c1", "values": [
      {"measurement": "IC50", "setting": "[7]", "value": "> 1000", "unit": "nM"}
    ]}
  ]
}
